According to patent US20250177351A1, “ISOINDOLINE COMPOSITIONS AND METHODS FOR TREATING NEURODEGENERATIVE DISEASE” (Cognition Therapeutics, Inc., priority 2022, published 2025):
Entries after “also recorded” stand apart in the source; their conditions may differ. Marks after values point to notes of the source that are not given here.

Legend:
[1] = Phase 1b/2a clinical trial (COG0102): safety, tolerability, exploratory cognitive outcomes; type: in vivo, human
Description: Safety and pharmacokinetics were primary objectives of the study, with changes in molecular biomarkers and cognitive outcomes identified as an exploratory objective.
Plasma and CSF protein expression were measured by LC/MSMS in samples drawn prior to dosing (Day 0) and at end of dosing (Day 28) and were compared within each patient and between dosing groups.
(§1) COG0102 clinical trial: This trial (ClinicalTrials.gov NCT02907567) was a randomized, double-blind, placebo-controlled clinical trial in mild to moderate Alzheimer's patients (MMSE 18-26) (See FIG. 1 for clinical trial design). The trial was conducted at six sites in Australia. Patients were randomized into placebo (n=5) or CT1812-treated groups: 90 mg (n=4), 280 mg (n=5) or 560 mg (n=5) and treated once daily for 28 days. Clinical chemistry was done at Sydpath (Sydney, AU). Pharmacokinetics were done at CPR Pharma Services (Adelaide, AU). Cerebrospinal fluid samples were taken at screening and day 21-28 of treatment and aliquoted. Plasma samples were taken at screening or Day 1 (one sample) and day 14-28, then spun down to separate plasma and aliquoted. One set of CSF samples was analyzed for Alzheimer's disease biomarkers; protein measurements (Aβ42, Aβ40, total tau, tau phosphorylated at threonine 181 (phosphorylated tau), NFL and neurogranin) were performed using commercially available ELISA assays from Fujirebio according to the manufacturer's instructions (INNOTEST β-AMYLOID(1-42), INNOTEST β-AMYLOID(1-40), INNOTEST hTau Ag, INNOTEST PHOSPHO-TAU(181P), Uman Diagnostics NFL assay). Neurogranin was measured with a sandwich ELISA method using antibodies Ng2 and Ng22 developed at the University of Gotteborg (Kvartsberg et al. 2015). Identical aliquots of CSF, and plasma were analyzed for protein expression changes via LC/MSMS at Caprion (see below).

[2] = Phase 1 MAD study: safety assessments; type: in vivo, human
Description: In Part B, healthy young subjects in each cohort received the same dose once daily for 14 days after overnight fasting. Cohort dosing started at 280 mg, followed by 560 mg and 840 mg in subsequent cohorts. In each cohort, eight subjects received drug and two received placebo. A fourth cohort of healthy elderly subjects (≥65 years old) received a 560 mg dose vs. placebo daily for 14 days (seven active, two placebo).
Subjects were dosed in the morning with 240 mL of water after an 8-hour fast, and remained in a semi-reclined position for 1 hour and fasting for 2 hours post-administration, except for the fed cohort in Part A. Subjects in each MAD cohort were confined to the clinical facility from check-in on Day 0 until the pharmacokinetic sample was collected on Day 16, 48 hours after administration of the last dose on Day 14. Subjects returned to the clinical facility for follow-up visits on Days 24 and 35.
Safety variables, including incidence of adverse events (AEs), vital signs, clinical laboratory findings, 12-lead electrocardiographs (ECGs), physical examination, and affective and cognitive measures (Part B only), were summarized for all subjects who received study drug.

[3] = molecular target: T1, Sigma-2/PGRMC1 receptor complex (Homo sapiens, UniProt Q5BJF2); experiment: Phase 1b/2a trial: pharmacokinetics and estimated brain receptor occupancy; type: in vivo; details: AD patients, 90-560 mg, day 28
T1 construct: from tissue; host or cells: brain of trial patients, in vivo (occupancy estimated from CSF drug concentration, not measured)
T1 sequence (Q5BJF2 whole entry, one chain of several): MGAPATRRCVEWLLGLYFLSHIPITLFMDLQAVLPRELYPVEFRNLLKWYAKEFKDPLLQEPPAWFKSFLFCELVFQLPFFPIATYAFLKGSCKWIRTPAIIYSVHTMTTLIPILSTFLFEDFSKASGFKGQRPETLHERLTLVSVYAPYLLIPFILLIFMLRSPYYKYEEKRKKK
Description: as §1, with “Plasma samples were taken at screening or Day 1 (one sample) and day 14-28, then spun down to separate plasma and aliquoted.” left out

[4] = Aged transgenic mouse models of AD; type: in vivo
CYP isoenzymes = experiment: Drug interaction studies
[5] = AD patients, 28 days, 90 mg (as in Table 3)
[6] = AD patients, 28 days, 90 mg (n = 4)
[7] = AD patients, 28 days, 280 mg (as in Table 3)
[8] = AD patients, 28 days, 280 mg (n = 5)
[9] = AD patients, 28 days, 560 mg (as in Table 3)
[10] = AD patients, 28 days, 560 mg (n = 5)
[11] = MAD, age ≤ 64 years, 280 mg (n = 8)
[12] = MAD, age ≤ 64 years, 560 mg (n = 8)
[13] = MAD, age ≤ 64 years, 840 mg (n = 8)
[14] = MAD, age ≥ 65 years, 560 mg (n = 7)

SMILES: CC(C)(C)Oc1cc(CCC(C)(C)N2Cc3ccc(S(C)(=O)=O)cc3C2)ccc1O [CT1812]
- patients with lymphocytopenia ([1]; AD patients, 560 mg, 3 mild, resolved by end of study): Four
- ALT in one participant ([1]; AD patients, 560 mg, resolved by end of study, no increase in bilirubin): ~4.7 ×ULN
- tolerability ([1]; AD patients, 90, 280 and 560 mg, 28 days): well tolerated with no drug-related significant adverse events reported; also recorded: generally safe and well tolerated at all doses
- Headache [1, 5]: 1 (25%) n (%)
- Lymphocytopenia [1, 5]: 0 (0%) n (%)
- Nausea [1, 5]: 0 (0%) n (%)
- Vomiting [1, 5]: 0 (0%) n (%)
- Mild TEAEs [1, 6]: 4 (100%) n (%)
- Moderate TEAEs [1, 6]: 0 (0%) n (%)
- SAEs [1, 6]: 0 (0%) n (%)
- Severe TEAEs [1, 6]: 0 (0%) n (%)
- TEAEs [1, 6]: 3 (75%) n (%)
- Headache [1, 7]: 0 (0%) n (%)
- Lymphocytopenia [1, 7]: 0 (0%) n (%)
- Nausea [1, 7]: 0 (0%) n (%)
- Vomiting [1, 7]: 0 (0%) n (%)
- Mild TEAEs [1, 8]: 3 (60%) n (%)
- Moderate TEAEs [1, 8]: 1 (20%) n (%)
- SAEs [1, 8]: 0 (0%) n (%)
- Severe TEAEs [1, 8]: 0 (0%) n (%)
- TEAEs [1, 8]: 4 (80%) n (%)
- Headache [1, 9]: 2 (40%) n (%)
- Lymphocytopenia [1, 9]: 3 (60%)* n (%)
- Nausea [1, 9]: 2 (40%) n (%)
- Vomiting [1, 9]: 2 (40%) n (%)
- Mild TEAEs [1, 10]: 5 (100%) n (%)
- Moderate TEAEs [1, 10]: 3 (60%) n (%)
- SAEs [1, 10]: 0 (0%) n (%)
- Severe TEAEs [1, 10]: 0 (0%) n (%)
- TEAEs [1, 10]: 5 (100%) n (%)
- tolerability ([2]; 280 mg to 840 mg QD for 14 days, healthy subjects): well tolerated
- ECG ([2]; MAD): No ECG parameters or changes were assessed as clinically significant
- Number of Subjects with TEAE: Back pain ([2]; MAD Total Active (n = 31)): 2
- Number of Subjects with TEAE: Catheter site phlebitis ([2]; MAD Total Active (n = 31)): 2
- Number of Subjects with TEAE: Dizziness ([2]; MAD Total Active (n = 31)): 3
- Number of Subjects with TEAE: Dyspepsia ([2]; MAD Total Active (n = 31)): 3
- Number of Subjects with TEAE: Headache ([2]; MAD Total Active (n = 31)): 10
- Number of Subjects with TEAE: Nausea ([2]; MAD Total Active (n = 31)): 2
- Number of Subjects with TEAE: Procedural pain ([2]; MAD Total Active (n = 31)): 6
- Number of Subjects with TEAE: Upper respiratory tract infection ([2]; MAD Total Active (n = 31)): 8
- Number of Subjects with TEAE: Vomiting ([2]; MAD Total Active (n = 31)): 2
- Number of Subjects with at least one Treatment-Emergent AE: All TEAES ([2]; MAD Total Active (n = 31)): 25
- Number of Subjects with TEAE: Dizziness [2, 11]: 1
- Number of Subjects with TEAE: Dyspepsia [2, 11]: 1
- Number of Subjects with TEAE: Headache [2, 11]: 2
- Number of Subjects with TEAE: Nausea [2, 11]: 1
- Number of Subjects with TEAE: Upper respiratory tract infection [2, 11]: 5
- Number of Subjects with at least one Treatment-Emergent AE: All TEAES [2, 11]: 7
- Number of Subjects with TEAE: Catheter site phlebitis [2, 12]: 1
- Number of Subjects with TEAE: Dyspepsia [2, 12]: 1
- Number of Subjects with TEAE: Headache [2, 12]: 1
- Number of Subjects with TEAE: Procedural pain [2, 12]: 4
- Number of Subjects with TEAE: Upper respiratory tract infection [2, 12]: 1
- Number of Subjects with at least one Treatment-Emergent AE: All TEAES [2, 12]: 7
- Number of Subjects with TEAE: Back pain [2, 13]: 1
- Number of Subjects with TEAE: Catheter site phlebitis [2, 13]: 1
- Number of Subjects with TEAE: Dizziness [2, 13]: 1
- Number of Subjects with TEAE: Dyspepsia [2, 13]: 1
- Number of Subjects with TEAE: Headache [2, 13]: 4
- Number of Subjects with TEAE: Nausea [2, 13]: 1
- Number of Subjects with TEAE: Procedural pain [2, 13]: 2
- Number of Subjects with TEAE: Upper respiratory tract infection [2, 13]: 2
- Number of Subjects with TEAE: Vomiting [2, 13]: 2
- Number of Subjects with at least one Treatment-Emergent AE: All TEAES [2, 13]: 6
- Number of Subjects with TEAE: Back pain [2, 14]: 1
- Number of Subjects with TEAE: Dizziness [2, 14]: 1
- Number of Subjects with TEAE: Headache [2, 14]: 3
- Number of Subjects with at least one Treatment-Emergent AE: All TEAES [2, 14]: 5
- serious AE (SAE) ([2]; MAD, subject on 840 mg, respiratory picornavirus infection deemed unrelated to study treatment): One
- subjects developing a rash ([2]; MAD, improvement after discontinuing CT1812): One
- subjects with increase in liver function tests below 3× the upper limit of normal ([2]; MAD, including one subject on placebo): Four
- increase of plasma concentration with dose [3]: approximately dose proportionally
- cognitive performance ([4]; aged transgenic mouse models of AD): restoring normal cognitive performance
- inflammatory protein expression in CSF ([4]; chronic treatment of aged transgenic mice, efficacious doses, LC/MSMS): significantly reduces
- interactions with CYP isoenzymes (CYP isoenzymes): minor interactions
